Measurements taken from patent US7772251B2, “N-sulphonylated amino acid derivatives, method for the production and use thereof” (The Medicines Company (Leipzig) GmbH, priority 2003, dated 2010).
pKi: −log10 of the molar value.

Biological target: T1, matriptase (Homo sapiens, UniProt Q9Y5Y6)
T1 construct: Met-Lys-(His)6 (N, cleaved yes); made in house; host or cells: Escherichia coli BL21 (DE3), vector pET24
T1 sequence (Q9Y5Y6 615-854 limits assumed): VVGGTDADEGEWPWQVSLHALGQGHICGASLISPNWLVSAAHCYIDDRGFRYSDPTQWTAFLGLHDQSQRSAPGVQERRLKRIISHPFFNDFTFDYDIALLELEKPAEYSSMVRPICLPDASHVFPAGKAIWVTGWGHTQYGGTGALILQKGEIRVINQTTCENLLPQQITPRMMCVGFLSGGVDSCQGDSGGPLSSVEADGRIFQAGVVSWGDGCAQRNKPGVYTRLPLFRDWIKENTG
Assay: Determination of Ki values for the inhibition of matriptase (chromogenic substrate CH3SO2-D-HHT-Gly-Arg-pNA)
Type: biochemical
Details: 25° C, pH 8.0, Dixon method, average of three determinations
Procedure: Preparation of the Catalytic Domain of Matriptase
The steps were in detail:
Activation: Since a correctly processed N terminus is a precondition for the activity of serine proteases, it was necessary to delete the peptide MK(His)6 to activate the refolded matriptase. For this purpose, the refolding mixture was incubated with 2.5 mU per 50 μg of protein of activated DAPase™ (Qiagen) at 30° C. for 2 h, and the activated matriptase was separated from the non-activated matriptase and the DAPase by metal chelate chromatography.
The proteolytic activity was detected by cleavage of the chromogenic substrate Pefachrome tPA (Pentapharm).

In order of falling pKi:
1. N=C(N)NCCNC(=O)C1CCN(C(=O)C(Cc2cccc(C(=N)N)c2)NS(=O)(=O)c2ccc3c(c2)C(O)c2ccccc2C3O)CC1 (stereo not drawn) [Compound 32]  8.01
2. N=C(N)c1cccc(CC(NS(=O)(=O)c2ccc(C3CCCCC3)cc2)C(=O)N2CCC(C(=O)N3CCN(C(=N)N)CC3)CC2)c1 (stereo not drawn) [Compound 54]  7.49
3. N=C(N)NCCC1CCN(C(=O)C(Cc2cccc(C(=N)N)c2)NC(=O)CNS(=O)(=O)c2ccc3c(c2)Cc2ccccc2C3)CC1 (stereo not drawn) [Compound 68]  7.42
4. N=C(N)NCCC(=O)N1CCN(C(=O)[C@H](Cc2cccc(C(=N)N)c2)NS(=O)(=O)c2ccc3cc4ccccc4cc3c2)CC1 [Compound 11, anthracenesulfonyl-Phe(3-Am)-Pzd-CO—CH2—CH2-guanidino]  7.36
5. 2,4,6-triisopropylphenylsulfonyl-Phe(3-Am)-iNip-DAE-H [Compound 3]  7.28
6. CC(C)c1cc(C(C)C)c(S(=O)(=O)NC(Cc2cccc(C(=N)N)c2)C(=O)N2CCN(C(=O)CCCNC(=N)N)CC2)c(C(C)C)c1 (stereo not drawn) [Compound 7]  7.25
7. N=C(N)NCCC1CCN(C(=O)C(Cc2cccc(C(=N)N)c2)NS(=O)(=O)c2cccc3ccccc23)CC1 (stereo not drawn) [Compound 41]  7.13
8. N=C(N)c1cccc(C[C@H](NS(=O)(=O)c2ccc3ccccc3c2)C(=O)N2CCC(CCN)CC2)c1 [Compound 36, 2-Nas-Phe(3-Am) 4(aminoethyl)piperidide]  6.96
9. 2,4,6-triisopropylphenylsulfonyl-Phe(3Am)-iNip-NH—CH2—CH2-guanidino [Compound 34]  6.85
10. N=C(N)c1cccc(CC(NS(=O)(=O)c2ccc(C3CCCCC3)cc2)C(=O)N2CCN(C(=O)CCN)CC2)c1 (stereo not drawn) [Compound 17]  6.85
11. N=C(N)c1cccc(CC(NS(=O)(=O)c2ccc(C3CCCCC3)cc2)C(=O)N2CCC(CCN)CC2)c1 (stereo not drawn) [Compound 45]  6.85
12. N=C(N)c1cccc(CC(NS(=O)(=O)c2ccc3c(c2)C(=O)c2ccccc2C3=O)C(=O)N2CCN(C(=O)CCN)CC2)c1 (stereo not drawn) [Compound 2]  6.80
13. N=C(N)CCNC(=O)C1CCN(C(=O)C(Cc2cccc(C(=N)N)c2)NS(=O)(=O)c2ccc3ccccc3c2)CC1 (stereo not drawn) [Compound 35]  6.80
14. N=C(N)CCNC(=O)C1CCN(C(=O)C(Cc2cccc(C(=N)N)c2)NC(=O)CNS(=O)(=O)c2ccc3ccccc3c2)CC1 (stereo not drawn) [Compound 49]  6.80
15. N=C(N)c1cccc(CC(NS(=O)(=O)c2cccc3ccccc23)C(=O)N2CCC(CCN)CC2)c1 (stereo not drawn) [Compound 39]  6.77
16. N=C(N)NCCC1CCN(C(=O)C(Cc2cccc(C(=N)N)c2)NS(=O)(=O)CCc2cccc3ccccc23)CC1 (stereo not drawn) [Compound 43]  6.74
17. CC(C)(C)c1ccc(S(=O)(=O)NC(Cc2cccc(C(=N)N)c2)C(=O)N2CCN(C(=O)CCNC(=N)N)CC2)cc1 (stereo not drawn) [Compound 22]  6.70
18. N=C(N)c1cccc(C[C@H](NS(=O)(=O)c2ccc3cc4ccccc4cc3c2)C(=O)N2CCN(C(=O)CCN)CC2)c1 [Compound 10, anthracenesulfonyl-Phe(3-Am)-Pzd-β-Ala]  6.57
19. N=C(N)NCCC(=O)N1CCN(C(=O)C(Cc2cccc(C(=N)N)c2)NS(=O)(=O)c2ccc3c(c2)CCCC3)CC1 (stereo not drawn) [Compound 15]  6.52
20. N=C(N)c1cccc(CC(NS(=O)(=O)c2ccc(C3CCCCC3)cc2)C(=O)N2CCN(C(=O)C3CCNCC3)CC2)c1 (stereo not drawn) [Compound 60]  6.51
21. N=C(N)c1cccc(CC(NS(=O)(=O)CCc2cccc3ccccc23)C(=O)N2CCC(CCN)CC2)c1 (stereo not drawn) [Compound 42]  6.44
22. N=C(N)c1cccc(CC(NC(=O)CNS(=O)(=O)c2ccc3ccccc3c2)C(=O)N2CCC(C(=O)NCCCN)CC2)c1 (stereo not drawn) [Compound 48]  6.44
23. N=C(N)CC(=O)N1CCN(C(=O)C(Cc2cccc(C(=N)N)c2)NS(=O)(=O)c2ccc(C3CCCCC3)cc2)CC1 (stereo not drawn) [Compound 61]  6.42
24. N=C(N)c1cccc(CC(NS(=O)(=O)c2ccc3c(c2)CCCC3)C(=O)N2CCN(C(=O)CCN)CC2)c1 (stereo not drawn) [Compound 14]  6.40
25. N=C(N)NCCC(=O)N1CCN(C(=O)C(Cc2cccc(C(=N)N)c2)NS(=O)(=O)Cc2ccc3ccccc3c2)CC1 (stereo not drawn) [Compound 26]  6.40
26. N=C(N)c1cccc(CC(NS(=O)(=O)c2ccc3c(c2)C(=O)c2ccccc2C3=O)C(=O)N2CCN(C(=O)C3CNC3)CC2)c1 (stereo not drawn) [Compound 27]  6.34
27. CC(C)(C)c1ccc(S(=O)(=O)NC(Cc2cccc(C(=N)N)c2)C(=O)N2CCN(C(=O)CCN)CC2)cc1 (stereo not drawn) [Compound 21]  6.33
28. N=C(N)c1cccc(CC(NS(=O)(=O)c2ccc(C3CCCCC3)cc2)C(=O)N2CCNCC2)c1 (stereo not drawn) [Compound 58]  6.26
29. N=C(N)c1cccc(CC(NS(=O)(=O)c2ccc(-c3ccccc3)cc2)C(=O)N2CCN(C(=O)CCN)CC2)c1 (stereo not drawn) [Compound 19]  6.22
30. N=C(N)c1cccc(CC(NS(=O)(=O)c2ccc3ccccc3c2)C(=O)N2CCN(C(=O)CCN)CC2)c1 (stereo not drawn) [Compound 12]  6.08
31. CC(C)c1cc(C(C)C)c(S(=O)(=O)NC(Cc2cccc(C(=N)N)c2)C(=O)N2CCN(C(=O)C3CCN(C(=O)OC(C)(C)C)CC3)CC2)c(C(C)C)c1 (stereo not drawn) [Compound 65]  6.08
32. N=C(N)NCCC(=O)N1CCN(C(=O)C(Cc2cccc(C(=N)N)c2)NC(=O)CNS(=O)(=O)c2ccc(S(=O)(=O)N3CCOCC3)cc2)CC1 (stereo not drawn) [Compound 51]  6.05
33. N=C(N)c1cccc(CC(NS(=O)(=O)c2ccc(C3CCCCC3)cc2)C(=O)N2CCN(C(=N)N)CC2)c1 (stereo not drawn) [Compound 55]  6.01
34. N=C(N)c1cccc(CC(NS(=O)(=O)c2cccc3c2CCCC3)C(=O)N2CCN(C(=O)CCN)CC2)c1 (stereo not drawn) [Compound 16]  6.00
35. N=C(N)CC(=O)N1CCN(C(=O)C(Cc2cccc(C(=N)N)c2)NS(=O)(=O)c2ccc3ccccc3c2)CC1 (stereo not drawn) [Compound 62]  5.96
36. N=C(N)c1cccc(CC(NS(=O)(=O)Cc2ccc3ccccc3c2)C(=O)N2CCN(C(=O)CCN)CC2)c1 (stereo not drawn) [Compound 25]  5.62
37. Cc1c(C)c(S(=O)(=O)NC(Cc2cccc(C(=N)N)c2)C(=O)N2CCN(C(=O)CCN)CC2)c(C)c2c1OC(C)(C)C2 (stereo not drawn) [Compound 23]  5.48
38. N=C(N)c1cccc(CC(NS(=O)(=O)c2ccc3ccccc3c2)C(=O)N2CC(C(=O)N3CCN(C(=N)N)CC3)C2)c1 (stereo not drawn) [Compound 67]  5.47
39. N=C(N)c1cccc(CC(NC(=O)CNS(=O)(=O)c2ccc(S(=O)(=O)N3CCOCC3)cc2)C(=O)N2CCN(C(=O)CCN)CC2)c1 (stereo not drawn) [Compound 50]  5.46
40. N=C(N)c1cccc(CC(NC(=O)CNS(=O)(=O)c2ccc3ccccc3c2)C(=O)N2CCC(C(=O)NCCCNC(=O)OCc3ccccc3)CC2)c1 (stereo not drawn) [Compound 47]  5.41
41. N=C(N)c1cccc(CC(NC(=O)CNS(=O)(=O)c2ccc3ccccc3c2)C(=O)N2CCN(C(=O)CCN)CC2)c1 (stereo not drawn) [Compound 40]  5.14
42. N=C(N)c1cccc(CC(NS(=O)(=O)c2ccc3ccccc3c2)C(=O)N2CC(C(=O)N3CCNCC3)C2)c1 (stereo not drawn) [Compound 66]  4.89
43. N=C(N)c1cccc(CC(NC(=O)CNS(=O)(=O)c2ccc3ccccc3c2)C(=O)N2CCC(CCN)CC2)c1 (stereo not drawn) [Compound 44]  4.68

Tested on: matriptase-expressing colon carcinoma cell line DLD-1
Assay: Inhibition of invasive growth (Matrigel invasion assay)
Type: cell-based
Details: proHGF-stimulated; inhibitor 30 μM; 48 hours; FIG. 1
From the text: A common test system for invasive growth at the cellular level is the Matrigel invasion assay. This entails cells being applied to an artificial extracellular matrix and investigation of how many cells migrate through the latter within a defined period.
It is shown here by way of example for the matriptase inhibitors 37 and 54 that invasive growth is influenced and the migration of matriptase-expressing colon carcinoma cell line DLD-1 through Matrigel is inhibited:
The wells of a ‘Transwell’ plate were each coated with 10 μg of Matrigel and 160 000 DLD-1 cells (Dexter et al, Cancer Research 39: 1020-1025 (1979)) in 100 μl of medium (RPMI 1640, with 2% Ultroser HY serum substituted) were applied to each, invasive growth was stimulated by adding ProHGF in 400 μl of medium with and without inhibitor (30 μM). After incubation at 37° C. and 5% CO2 for 48 hours, the cells which had migrated through the matrix were fixed, stained and photographed at 100× magnification.

For `N=C(N)NCCC1CCN(C(=O)[C@H](Cc2cccc(C(=N)N)c2)NS(=O)(=O)c2ccc3ccccc3c2)CC1.O=C(O)C(F)(F)F.O=C(O)C(F)(F)F` [Compound 37, 2-Nas-Phe(3-Am) 4(guanidinoethyl)piperidide], the “inhibition of migration/invasion of DLD-1 cells through Matrigel” value was “inhibited”.

Tested on: matriptase-expressing prostate carcinoma cells (PC-3)
Assay: Inhibition of proHGF-induced cell scattering (scatter assay)
Type: cell-based
Details: proHGF-stimulated; inhibitor 3 μM; 6 days; FIG. 2
From the text: Because of its ability to induce the detachment of cells from an isolated assemblage and the dissemination of the cells, HGF is also referred to as scatter factor. This function can be detected at the cellular level with the aid of the so-called scatter assay. This entails the cells being seeded and their dissemination stimulated by the addition of HGF being recorded after a defined time. […] It is shown below by way of example for the matriptase inhibitors 37 and 54 that activation of proHGF by cellular matriptase is prevented and the scattering of proHGF-stimulated cells is reduced.
For this purpose, 500 matriptase-expressing prostate carcinoma cells (PC-3) were seeded in each well of a 96-well plate and incubated (37° C., 5% CO2) in 100 μl of medium without fetal calf serum (Nut Mix. F-12, 2% Ultroser HY) overnight, and then the scattering was stimulated by adding proHGF with and without matriptase inhibitors (3 μM). After 6 days, the cells were fixed and stained, and representative sections were photographed at 100× magnification.

`N=C(N)NCCC1CCN(C(=O)[C@H](Cc2cccc(C(=N)N)c2)NS(=O)(=O)c2ccc3ccccc3c2)CC1.O=C(O)C(F)(F)F.O=C(O)C(F)(F)F` [Compound 37, 2-Nas-Phe(3-Am) 4(guanidinoethyl)piperidide] was tested, and the “inhibition of proHGF-induced scattering of PC-3 cells” value was “inhibit the proHGF-induced scattering of PC-3 cells”.
